Results as given in PMC4143601 (Cancer Chemotherapy and Pharmacology, 2014).
“Also recorded” adds a separate entry of the source. Read-outs that look alike come from different tables or passages of the source.

Columns and labels:
[1] = Description: Inclusion criteria included Eastern Cooperative Oncology Group performance status ≤2 and life expectancy ≥12 weeks.
(§1) The starting dose was 8 mg/m^2, and treatment cycles were 28 days. Intra-patient dose escalation was not permitted. An adaptive Bayesian logistic regression model (BLRM), guided by the escalation with overdose control (EWOC) principle, was used to guide dose escalations. The EWOC principle mandates the potential doses recommended for the next cohort and the estimated MTD have less than 25 % posterior probability of DLT in the excessive toxicity interval (33, 100 %). […] The occurrence of DLTs was evaluated during Cycle 1. A minimum of three patients were enrolled in a cohort, and the estimated MTD was continuously updated using the BLRM, and a minimum of six patients were planned to be enrolled at the MTD level. […] A minimum of 15 patients were required for the BLRM model to determine the MTD. […] Doses were individually adjusted according to body surface area measured at baseline.
(§2) Toxicity was graded according to the National Cancer Institute Common Toxicity Criteria version 3.0. […] Tumor response was assessed by computed tomography or magnetic resonance imaging, and using Response Evaluation Criteria in Solid Tumors version 1.0 for efficacy evaluations.
The DDS was used for the BLRM analyses in the determination of MTD.

advanced solid tumors = experiment: Tumor response, best overall response (RECIST version 1.0); format: in vivo, human (Japanese patients)
Description: as §1, §2

[2] = Pharmacokinetics of AUY922 and its glucuronide metabolite BJP762 in blood (LC-MS/MS, non-compartmental); format: in vivo, human (Japanese patients with advanced solid tumors); conditions: for half-life / Tmax / AUC(0-inf) / AUC(0-t) / Cmax / clearance / Vd: human; for half-life / Tmax: blood; for Tmax: read-out: T max [median (range)]; for AUC(0-inf) / AUC(0-t) / Cmax / clearance / Vd: whole blood; for Vd: read-out: Vz
Description: Intra-patient dose escalation was not permitted. […] The occurrence of DLTs was evaluated during Cycle 1.

CCNC(=O)c1noc(-c2cc(C(C)C)c(O)cc2O)c1-c1ccc(CN2CCOCC2)cc1 [AUY922, 5-[2,4-dihydroxy-5-isopropyl-phenyl]-N-ethyl-4-[4-(morpholinomethyl)phenyl]isoxazole-3-carboxamide]
Maximum tolerated dose (MTD) ([1]; IV once-weekly, 8–70 mg/m^2 tested): No MTD was determined; also recorded: the MTD was not determined; also recorded: The MTD was not established
Diarrhea, AE regardless of relationship to study drug ([1]; human, in vivo): 65%
Fatigue, AE regardless of relationship to study drug ([1]; human, in vivo): 29%
Nausea, AE regardless of relationship to study drug ([1]; human, in vivo): 29%
Night blindness, AE regardless of relationship to study drug ([1]; human, in vivo): 42%
Patients with AEs requiring dose modification or interruption ([1]; human, in vivo): 48%
Patients with serious AEs (SAEs) ([1]; human, in vivo): 26%
Patients who experienced DLTs ([1]; human, in vivo, 28 days): 3.6%
Recommended Phase II dose (RP2D) ([1]; human, in vivo, iv): 70 mg/m^2
Patients discontinued as a result of AEs related to study drug ([1]; in vivo): two patients
Patients with SAEs considered to be related to the study drug ([1]; in vivo): two patients
Best overall response: Complete response (advanced solid tumors; 8 mg/m^2 (n = 3)): 0 n
Best overall response: Partial response (advanced solid tumors; 8 mg/m^2 (n = 3)): 0 n
Best overall response: Progressive disease (advanced solid tumors; 8 mg/m^2 (n = 3)): 2 n
Best overall response: Stable disease (advanced solid tumors; 8 mg/m^2 (n = 3)): 1 n
Best overall response: Unknown (advanced solid tumors; 8 mg/m^2 (n = 3)): 0 n
Disease control rate (CR + PR + SD) (advanced solid tumors; 8 mg/m^2 (n = 3)): 1 n
Overall response rate (CR + PR) (advanced solid tumors; 8 mg/m^2 (n = 3)): 0 n
Best overall response: Complete response (advanced solid tumors; 16 mg/m^2 (n = 3)): 0 n
Best overall response: Partial response (advanced solid tumors; 16 mg/m^2 (n = 3)): 0 n
Best overall response: Progressive disease (advanced solid tumors; 16 mg/m^2 (n = 3)): 2 n
Best overall response: Stable disease (advanced solid tumors; 16 mg/m^2 (n = 3)): 1 n
Best overall response: Unknown (advanced solid tumors; 16 mg/m^2 (n = 3)): 0 n
Disease control rate (CR + PR + SD) (advanced solid tumors; 16 mg/m^2 (n = 3)): 1 n
Overall response rate (CR + PR) (advanced solid tumors; 16 mg/m^2 (n = 3)): 0 n
Best overall response: Complete response (advanced solid tumors; 22 mg/m^2 (n = 3)): 0 n
Best overall response: Partial response (advanced solid tumors; 22 mg/m^2 (n = 3)): 0 n
Best overall response: Progressive disease (advanced solid tumors; 22 mg/m^2 (n = 3)): 3 n
Best overall response: Stable disease (advanced solid tumors; 22 mg/m^2 (n = 3)): 0 n
Best overall response: Unknown (advanced solid tumors; 22 mg/m^2 (n = 3)): 0 n
Disease control rate (CR + PR + SD) (advanced solid tumors; 22 mg/m^2 (n = 3)): 0 n
Overall response rate (CR + PR) (advanced solid tumors; 22 mg/m^2 (n = 3)): 0 n
Best overall response: Complete response (advanced solid tumors; 28 mg/m^2 (n = 5)): 0 n
Best overall response: Partial response (advanced solid tumors; 28 mg/m^2 (n = 5)): 0 n
Best overall response: Progressive disease (advanced solid tumors; 28 mg/m^2 (n = 5)): 4 n
Best overall response: Stable disease (advanced solid tumors; 28 mg/m^2 (n = 5)): 1 n
Best overall response: Unknown (advanced solid tumors; 28 mg/m^2 (n = 5)): 0 n
Disease control rate (CR + PR + SD) (advanced solid tumors; 28 mg/m^2 (n = 5)): 1 n
Overall response rate (CR + PR) (advanced solid tumors; 28 mg/m^2 (n = 5)): 0 n
Best overall response: Complete response (advanced solid tumors; 40 mg/m^2 (n = 3)): 0 n
Best overall response: Partial response (advanced solid tumors; 40 mg/m^2 (n = 3)): 0 n
Best overall response: Progressive disease (advanced solid tumors; 40 mg/m^2 (n = 3)): 2 n
Best overall response: Stable disease (advanced solid tumors; 40 mg/m^2 (n = 3)): 1 n
Best overall response: Unknown (advanced solid tumors; 40 mg/m^2 (n = 3)): 0 n
Disease control rate (CR + PR + SD) (advanced solid tumors; 40 mg/m^2 (n = 3)): 1 n
Overall response rate (CR + PR) (advanced solid tumors; 40 mg/m^2 (n = 3)): 0 n
Best overall response: Complete response (advanced solid tumors; 54 mg/m^2 (n = 6)): 0 n
Best overall response: Partial response (advanced solid tumors; 54 mg/m^2 (n = 6)): 1 n
Best overall response: Progressive disease (advanced solid tumors; 54 mg/m^2 (n = 6)): 3 n
Best overall response: Stable disease (advanced solid tumors; 54 mg/m^2 (n = 6)): 1 n
Best overall response: Unknown (advanced solid tumors; 54 mg/m^2 (n = 6)): 1 n
Disease control rate (CR + PR + SD) (advanced solid tumors; 54 mg/m^2 (n = 6)): 2 n
Overall response rate (CR + PR) (advanced solid tumors; 54 mg/m^2 (n = 6)): 1 n
Best overall response: Complete response (advanced solid tumors; 70 mg/m^2 (n = 8)): 0 n
Best overall response: Partial response (advanced solid tumors; 70 mg/m^2 (n = 8)): 0 n
Best overall response: Progressive disease (advanced solid tumors; 70 mg/m^2 (n = 8)): 3 n
Best overall response: Stable disease (advanced solid tumors; 70 mg/m^2 (n = 8)): 5 n
Best overall response: Unknown (advanced solid tumors; 70 mg/m^2 (n = 8)): 0 n
Disease control rate (CR + PR + SD) (advanced solid tumors; 70 mg/m^2 (n = 8)): 5 n
Overall response rate (CR + PR) (advanced solid tumors; 70 mg/m^2 (n = 8)): 0 n
Patients with best overall response of stable disease (advanced solid tumors; 70-mg/m^2 cohort, five out of the eight patients): 63%
Best overall response: Complete response (advanced solid tumors; Total, all doses (N = 31)): 0 n (%)
Best overall response: Partial response (advanced solid tumors; Total, all doses (N = 31)): 1 (3) n (%)
Best overall response: Progressive disease (advanced solid tumors; Total, all doses (N = 31)): 19 (61) n (%)
Best overall response: Stable disease (advanced solid tumors; Total, all doses (N = 31)): 10 (32) n (%)
Best overall response: Unknown (advanced solid tumors; Total, all doses (N = 31)): 1 (3) n (%)
Disease control rate (CR + PR + SD) (advanced solid tumors; Total, all doses (N = 31)): 11 (36) n (%)
Overall response rate (CR + PR) (advanced solid tumors; Total, all doses (N = 31)): 1 (3) n (%)
Disease control rate (DCR; PR + SD) (advanced solid tumors; across all dose levels): 36%
Complete response (advanced solid tumors; all doses): no patients achieved a complete response
Patients with confirmed partial response (advanced solid tumors; all doses (N = 31), one patient): 3%
Patients with best overall response of stable disease (advanced solid tumors; all doses (N = 31), ten patients, SD lasting ≥8 weeks): 32%
Duration of confirmed partial response (advanced solid tumors; one patient, rectal carcinoid tumor with lung metastatic lesions, 54 mg/m^2): > 7 months
Dose proportionality of C max in blood ([2]; entire dose range 8–70 mg/m^2): generally increased in a dose-proportional manner; also recorded: increased generally in a dose-proportional manner
half-life ([2]; intravenous, 8 mg/m2): 64 h
half-life ([2]; iv, 28 mg/m2): 98.7 ± 23 h
Tmax ([2]; iv, 28 mg/m2): 0.5 h
half-life ([2]; iv, 40 mg/m2): 123 ± 40.8 h
Tmax ([2]; iv, 40 mg/m2): 1.05 h
half-life ([2]; iv, 54 mg/m2): 120 ± 28.5 h
Tmax ([2]; iv, 54 mg/m2): 0.76 h
half-life ([2]; iv, 70 mg/m2): 127 ± 18.8 h
Tmax ([2]; iv, 70 mg/m2): 1.02 h
AUC(0-inf) ([2]; iv, 28 mg/m2): 9550 ng·h/mL
AUC(0-t) ([2]; iv, 28 mg/m2): 6810 ng·h/mL
Cmax ([2]; iv, 28 mg/m2): 457 ± 101 ng/mL
clearance ([2]; iv, 28 mg/m2): 79.8 mL/min
Vd ([2]; iv, 28 mg/m2): 646 ± 111 L
AUC(0-inf) ([2]; iv, 40 mg/m2): 11400 ng·h/mL
AUC(0-t) ([2]; iv, 40 mg/m2): 6960 ng·h/mL
Cmax ([2]; iv, 40 mg/m2): 710 ± 42 ng/mL
clearance ([2]; iv, 40 mg/m2): 95.7 mL/min
Vd ([2]; iv, 40 mg/m2): 980 ± 132 L
AUC(0-inf) ([2]; iv, 54 mg/m2): 12300 ng·h/mL
AUC(0-t) ([2]; iv, 54 mg/m2): 8880 ng·h/mL
Cmax ([2]; iv, 54 mg/m2): 1050 ng/mL
clearance ([2]; iv, 54 mg/m2): 121 mL/min
Vd ([2]; iv, 54 mg/m2): 1190 L
AUC(0-inf) ([2]; iv, 70 mg/m2): 12600 ng·h/mL
AUC(0-t) ([2]; iv, 70 mg/m2): 8540 ng·h/mL
Cmax ([2]; iv, 70 mg/m2): 1100 ng/mL
clearance ([2]; iv, 70 mg/m2): 143 mL/min
Vd ([2]; iv, 70 mg/m2): 1570 L
Dose dependence of AUClast in blood ([2]; increased with dose from 8 to 28 mg/m^2): saturated at higher dose levels; also recorded: saturated at higher doses
